# Measured values reported in US8143212B2 (Vicuron Pharmaceuticals Inc., priority 2002, dated 2012).
# Like-named read-outs stand apart in the source and are kept apart here.
# Columns and labels:
# [1] = Plasma pharmacokinetics in thigh-infected neutropenic mice; conditions: intraperitoneal
# Description: (§1) Neutropenia in this and all other studies was produced by injections of cyclophosphamide, 150 mg/kg 4 days prior to study, 100 mg/kg 1 day prior to study and 100 mg/kg every 48 h after start of infection until end of study. Neutrophil counts remained less than 100/mm^3 for the duration of study. Doses of 2.5, 5, 10, 20; 40, and 80 mg/kg were studied. Drug was administered by intraperitoneal injection of 0.2 ml volume. Blood was removed from groups of three mice by retroorbital aspiration into heparinized capillary tubes at 0.5, 1, 2, 4, 6, 24, 48, 72, and 96 hours after dosing. […] AUC was calculated by the trapezoidal rule from mean concentrations.
# [2] = system: Gram-positive isolates, including MRSA; format: cell-based; conditions: baseline isolates, MITT
# clinical [3] = conditions: human, in vivo; for AUC(0-inf): AUC0-inf; for clearance: CL; for Vd: Vss
# Description: (§2) The peak concentrations (Cmax) were obtained directly from the observed data. The area under the plasma concentration-time curve (AUC) were calculated using the linear trapezoidal rule.
# (§3) Clinical Study VER001-13 examined subjects with mild and moderate renal impairment and Clinical Study VER001-1 examined subjects with severe renal impairment and subjects with end-stage renal disease (ESRD). Matched control subjects were enrolled in all studies. […] Subjects with ESRD were dependent on dialysis through the course of the study (3 times weekly).
# [4] = Pharmacokinetics and safety in subjects with renal impairment / ESRD (VER001-3, -11, -13); conditions: for half-life: human, plasma, intravenous
# Description: as §2, §3
# Gram-positive pathogen = assay: Phase II SSTI trial: microbiological response; format: in vivo, human; conditions: for Success Rate by Pathogen: Microbiologically ITT Population at FU; for eradication/presumed eradication rate, all organisms: FU assessment
# Description: There were 62 patients randomized into the study; all received at least one dose of study medication. Four study populations were evaluated for safety and efficacy and were defined as follows: The intent-to-treat (ITT) population included all patients who received at least one dose of study drug (all randomized study subjects).
# Microbiological outcome, a secondary efficacy variable, was assessed in the subpopulation of patients who had microbiologically documented SSTI (i.e., at least one identified baseline pathogen). A microbiologic response was assessed for each Gram-positive pathogen identified at baseline (i.e., eradication, presumed eradication, persistence, presumed persistence). For patients for whom follow-up cultures were not performed, the microbiologic responses for baseline pathogens were presumed on the basis of the clinical response. Microbiologic response by patient at the EOT and FU visits was graded as success (i.e., all Gram-positive organisms eradicated or presumed eradicated) or failure (i.e., at least one Gram-positive organism persisted or presumed to have persisted, multiple pathogens with partial eradication). At both the EOT and FU visits, colonization and superinfection were assessed. At the FU visit, a patient's bacteriological response could also include recurrence.
# clinical [5] = conditions: human, in vivo
# From the text: The study enrolled otherwise healthy subjects with mild, moderate, or severe hepatic impairment (Child-Pugh scores 5 to 6, 7 to 9, and 10 to 15, respectively) and matched control subjects with normal hepatic function.
# [6] = human, in vivo
# Description: as §2, §3
# E faecalis = assay: MIC, microbiological activity (Table 3); format: cell-based; conditions: read-out: MIC
# in vitro = format: cell-based, S. aureus; conditions: mouse, serum
# From the text: This degree of binding was considered in subsequent pharmacodynamic analyses. The degree of binding in human serum would be estimated to be 96%.
# S haemolyticus = assay: MIC, microbiological activity (Table 3); format: cell-based; conditions: L 602 S haemolyticus clin. isolate; read-out: MIC
# P vulgaris = assay: MIC, microbiological activity (Table 3); format: cell-based; conditions: L 79 P vulgaris; read-out: MIC
# human α-glycoprotein = conditions: pH 7.4
# Description: Integrated heat effects, after correction for heats of dilution, were analyzed by non-linear regression using a simple single-site binding model with the standard Microcal ORIGIN software package. Raw data (μcal/sec) for each injection were integrated to give the total heat effect per addition, then divided by amount of injectant to give kcal/mole of injectant. The same integration was applied for control dilution effects, and this was subtracted from the actual titration data. This provided a differential of the binding curve in which the extent of binding is proportional to the total heat liberated (or absorbed). This was then analyzed by non-linear regression methods in terms of various standard binding models. The simplest model assumes simple non-competitive binding equilibrium, and gives three parameters:
# E coli = assay: MIC, microbiological activity (Table 3); format: cell-based
# [7] = human, in vivo; remark: listed apart in the source
# in vivo = conditions: Swiss ICR, mouse, plasma, ip
# Description: as §1
# [8] = system: hepatic cytochrome P450 isoenzymes
# bacteria = assay: Minimum bactericidal concentration; format: cell-based; conditions: in plasma
# From the text: The amount of dalbavancin administered may be any of the dosages disclosed herein.
# [9] = in vivo
# Description: Safety was evaluated by the collection and analysis of data on adverse events (AEs), clinical laboratory tests, physical examinations, vital signs, and ECGs.
# Rat mass balance study = conditions: rats
# Description: Excreta and more than 40 different tissues were collected through 70 days post-administration, and the tissue distribution and pharmacokinetics of drug-derived radioactivity were determined.
# Following dose administration, urine and feces were collected at 24 hour intervals to 14, 36, and 70 days after the dose (3 rats/final collection time). Water and methanol cage washes were also collected. Carcasses were analyzed at the end of the collection period. All samples were analyzed for total radioactivity content by liquid scintillation counting (LSC).
compound,measurement,setting,value
CN[C@H]1C(=O)N[C@@H]2Cc3ccc(cc3)Oc3cc4cc(c3O[C@@H]3O[C@H](C(=O)O)[C@@H](O)[C@H](O)[C@H]3NC(=O)CCCCCCCCC(C)C)Oc3ccc(cc3Cl)[C@@H](O)[C@@H]3NC(=O)[C@H](NC(=O)[C@@H]4NC(=O)[C@@H](NC2=O)c2cc(cc(O)c2Cl)Oc2cc1ccc2O)c1ccc(O)c(c1)-c1c(O[C@H]2O[C@H](CO)[C@@H](O)[C@H](O)[C@@H]2O)cc(O)cc1[C@@H](C(=O)NCCCN(C)C)NC3=O [Dalbavancin],time of peak levels,[1],4 to 6 h
same,Dalbavancin MIC,"[2]; All S. aureus, Single dose Dalbavancin (1100 mg) group",(0.12)
same,Dalbavancin MIC,"[2]; All S. aureus, Standard of Care Regimens group",(0.016-0.25)
same,Dalbavancin MIC,"[2]; All S. aureus, Two-dose Dalbavancin (1000/500 mg) group",(0.12)
same,Dalbavancin MIC,"[2]; Group B streptococcus, Standard of Care Regimens group",(0.016)
same,Dalbavancin MIC,"[2]; Group B streptococcus, Two-dose Dalbavancin (1000/500 mg) group",(0.016)
same,Dalbavancin MIC,"[2]; Miscellaneous Streptococcus and nontypeable strains, Single dose Dalbavancin (1100 mg) group",(0.016)
same,Dalbavancin MIC,"[2]; Miscellaneous Streptococcus and nontypeable strains, Standard of Care Regimens group",(0.016)
same,Dalbavancin MIC,"[2]; Miscellaneous Streptococcus and nontypeable strains, Two-dose Dalbavancin (1000/500 mg) group",(0.016)
same,Dalbavancin MIC,"[2]; Streptococcus pyogenes, Standard of Care Regimens group",(0.016)
same,AUC,"clinical [3]; 500 mg, AUC",24400 µg·h/mL
same,AUC,"clinical [3]; 500 mg, AUC0-day7",6080 µg·h/mL
same,AUC,"clinical [3]; 500 mg, AUC0-day14",10400 µg·h/mL
same,AUC(0-inf),clinical [3]; 500 mg,24100 µg·h/mL
same,AUC,"clinical [3]; 500 mg, AUC7",6860 µg·h/mL
same,AUC,"clinical [3]; 500 mg, AUC14",11000 µg·h/mL
same,clearance,clinical [3]; 500 mg,0.37 mL/min
same,Cmax,clinical [3]; 500 mg,137 µg/mL
same,Vd,clinical [3]; 500 mg,13.2 L
same,AUC,"clinical [3]; 1000 mg, AUC",24500 µg·h/mL
same,AUC,"clinical [3]; 1000 mg, AUC0-day7",9710 µg·h/mL
same,AUC,"clinical [3]; 1000 mg, AUC0-day14",15300 µg·h/mL
same,AUC(0-inf),clinical [3]; 1000 mg,27000 µg·h/mL
same,AUC,"clinical [3]; 1000 mg, AUC7",13400 µg·h/mL
same,AUC,"clinical [3]; 1000 mg, AUC 14",~22000 µg·h/mL
same,AUC,"clinical [3]; 1000 mg, AUC14",17700 µg·h/mL
same,AUC,"clinical [3]; 1000 mg, AUC42",23100 µg·h/mL
same,clearance,clinical [3]; 1000 mg,0.627 mL/min
same,Cmax,clinical [3]; 1000 mg,340 µg/mL
same,Vd,clinical [3]; 1000 mg,16.5 L
same,AUC,"clinical [3]; 1120 mg, AUC",25800 µg·h/mL
same,AUC,"clinical [3]; 1120 mg, AUC0-day7",13600 µg·h/mL
same,AUC,"clinical [3]; 1120 mg, AUC0-day14",20200 µg·h/mL
same,AUC(0-inf),clinical [3]; 1120 mg,25800 µg·h/mL
same,AUC,"clinical [3]; 1120 mg, AUC7",13600 µg·h/mL
same,AUC,"clinical [3]; 1120 mg, AUC14",20200 µg·h/mL
same,clearance,clinical [3]; 1120 mg,0.728 mL/min
same,Cmax,clinical [3]; 1120 mg,325 µg/mL
same,Vd,clinical [3]; 1120 mg,8.49 L
same,half-life,"[4]; 500 mg, t1/2, ESRD Postdialysis (N = 3), VER001-11, single dose 500 mg",14.5 days
same,half-life,"[4]; 500 mg, t1/2, ESRD Predialysis (N = 3), VER001-11, single dose 500 mg",15.7 days
same,half-life,"[4]; 500 mg, t1/2, Normal Renal Function (N = 6), VER001-11, single dose 500 mg",13.9 days
same,half-life,"[4]; 500 mg, t1/2, Severe Renal Impairment (N = 6), VER001-11, single dose 500 mg",18.9 days
same,half-life,"[4]; 1000 mg, t1/2, Mild Renal Impairment (N = 6), VER001-13, single dose 1000 mg",16.2 days
same,half-life,"[4]; 1000 mg, t1/2, Moderate Renal Impairment (N = 6), VER001-13, single dose 1000 mg",18 days
same,half-life,"[4]; 1000 mg, t1/2, Normal Renal Function (N = 9), VER001-13, single dose 1000 mg",17.4 days
same,half-life,"[4]; 1000 mg, t1/2, Severe Renal Impairment (N = 4), VER001-11, single dose 1000 mg",19.5 days
same,half-life,"[4]; 1120 mg, t1/2, Normal Renal Function (N = 3), VER001-2, single dose 1120 mg",6.21 days
same,increase in concentrations vs normal renal function,"[4]; severe renal impairment, through the first week post-dose",≤ 40%
same,S. aureus eradication rate,"Gram-positive pathogen; FU, single-dose",50%
same,S. aureus eradication rate,"Gram-positive pathogen; FU, two-dose",90%
same,Microbiologic Success Rate,"Gram-positive pathogen; MITT population, EOT, Single-dose (1100 mg)",5/14 (35.7) %
same,Microbiologic Success Rate,"Gram-positive pathogen; MITT population, EOT, Two-dose (1000/500 mg)",10/13 (76.9) %
same,Microbiologic Success Rate,"Gram-positive pathogen; MITT population, FU, Single-dose (1100 mg)",3/14 (21.4) %
same,Microbiologic Success Rate,"Gram-positive pathogen; MITT population, FU, Two-dose (1000/500 mg)",9/13 (69.2) %
same,MRSA eradication rate,"Gram-positive pathogen; MITT population, single-dose",50%
same,MRSA eradication rate,"Gram-positive pathogen; MITT population, two-dose",80%
same,Success Rate by Pathogen,"Gram-positive pathogen; Methicillin-resistant S. aureus, Single-dose (1100 mg)",3/6 (50%)
same,Success Rate by Pathogen,"Gram-positive pathogen; Methicillin-resistant S. aureus, Two-dose (1000/500 mg)",4/5 (80%)
same,Microbiologic Success Rate,"Gram-positive pathogen; Microbiologically evaluable population, EOT, Single-dose (1100 mg)",5/13 (38.5) %
same,Microbiologic Success Rate,"Gram-positive pathogen; Microbiologically evaluable population, EOT, Two-dose (1000/500 mg)",8/11 (72.7) %
same,Microbiologic Success Rate,"Gram-positive pathogen; Microbiologically evaluable population, FU, Single-dose (1100 mg)",3/11 (27.3) %
same,Microbiologic Success Rate,"Gram-positive pathogen; Microbiologically evaluable population, FU, Two-dose (1000/500 mg)",8/11 (72.7) %
same,Success Rate by Pathogen,"Gram-positive pathogen; Total organisms, Two-dose (1000/500 mg)",14/16 (87.5%)^
same,microbiologic success rates,"Gram-positive pathogen; both visits (EOT and FU), single dose",< 40%
same,Microbiologic Success Rate,"Gram-positive pathogen; microbiologically-evaluable population, EOT, single-dose",38.5%
same,Microbiologic Success Rate,"Gram-positive pathogen; microbiologically-evaluable population, EOT, two-dose",72.7%
same,"eradication/presumed eradication rate, all organisms","Gram-positive pathogen; microbiologically-evaluable population, single-dose",58%
same,"eradication/presumed eradication rate, all organisms","Gram-positive pathogen; microbiologically-evaluable population, two-dose",92%
same,Microbiologic Success Rate,"Gram-positive pathogen; microbiologically-evaluable population, FU, single-dose",27.3%
same,Microbiologic Success Rate,"Gram-positive pathogen; microbiologically-evaluable population, FU, two-dose",72.7%
same,clearance,clinical [5]; CL,0.777 mL/min
same,Vd,clinical [5]; Vss,18.1 L
same,tolerability,[6],well tolerated
same,Cmax,[6]; 1120 mg,325 µg/mL
same,MIC,E faecalis; L 149 E faecalis,0.06 µg/mL
same,MIC,E faecalis; L 562 E faecalis clin. isolate,> 32 µg/mL
same,fraction unbound,in vitro,0.004
same,MIC,S haemolyticus,> 32 µg/mL
same,MIC,P vulgaris,> 32 µg/mL
same,Calculated percent Binding,human α-glycoprotein; 1 μM,73.0%
same,Calculated percent Binding,human α-glycoprotein; 10 μM,68.2%
same,Calculated percent Binding,human α-glycoprotein; 100 μM,26.2%
same,Calculated percent Binding,human α-glycoprotein; 165 μM,16.9%
same,Calculated percent Binding,human α-glycoprotein; 250 μM,11.4%
same,Calculated percent Binding,human α-glycoprotein; 500 μM,5.9%
same,MIC,E coli; G 16440 E coli iperperm,8 µg/mL
same,MIC,"E coli; L 47 E coli SKF12140, read-out: MIC",> 32 µg/mL
same,"plasma concentration, all patients",[7],greater than 20 mg/l
same,half-life,in vivo,0.317 to 0.546 days
same,metabolism in vitro,[8],not metabolized
same,"substrate, inhibitor, or inducer of hepatic cytochrome P450 isoenzymes",[8],"not a substrate, inhibitor, or inducer"
same,MBC,bacteria,~4 µg/mL
same,average difference of effect on QTc values,[9]; human,7 ms
same,patients with AEs that led to discontinuation of study drug,[9]; human,3%
same,SAE considered to be related to study drug,[9],no SAE
same,plasma t1/2,Rat mass balance study,approximately 1 week
